# Laboratory results from US10092620B2, “Uses of cyclic peptides for treating and preventing atherosclerosis” (THE SCRIPPS RESEARCH INSTITUTE, priority 2013, dated 2018).
# Non-standard residues stand in square brackets, D forms with d. d3Pal = N[C@H](Cc1cccnc1)C(=O)O; Aoc(2) = CCCCCC[C@H](N)C(=O)O; Orn = NCCC[C@H](N)C(=O)O; Dap = NC[C@H](N)C(=O)O
# System: HDL in human plasma
# Experiment: pre-beta HDL ELISA assay: remodeling HDL in human plasma in vitro
# Type: biochemical
# Settings: for Pre-beta HDL generated (normalized level): pre-beta HDL ELISA
# Experimental: First, various cyclic peptides, including the majority of compounds shown in FIG. 2, were assessed for activities for remodeling HDL in human plasma in vitro. Unlike western blot which was used to generate data shown in FIG. 2, here a pre-beta HDL ELISA assay was used to measure pre-beta HDL levels. Results from the assay are shown in Table 1, which lists the peptides in the order of their activities in remodeling HDL.
Substance,Pre-beta HDL generated (normalized level),activity in generating pre-beta HDL (in words)
22 (cyclo([dW][Aoc(2)][dW]S[dE]Q[dS][Orn]); SMILES CCCCCC[C@@H]1NC(=O)[C@@H](Cc2c[nH]c3ccccc23)NC(=O)[C@H](CCCN)NC(=O)[C@@H](CO)NC(=O)[C@H](CCC(N)=O)NC(=O)[C@@H](CCC(=O)O)NC(=O)[C@H](CO)NC(=O)[C@@H](Cc2c[nH]c3ccccc23)NC1=O) [compound 22],0.13,–
9 (cyclo([dW]L[dW]R[dD]N[dD]K); SMILES CC(C)C[C@@H]1NC(=O)[C@@H](Cc2c[nH]c3ccccc23)NC(=O)[C@H](CCCCN)NC(=O)[C@@H](CC(=O)O)NC(=O)[C@H](CC(N)=O)NC(=O)[C@@H](CC(=O)O)NC(=O)[C@H](CCCNC(=N)N)NC(=O)[C@@H](Cc2c[nH]c3ccccc23)NC1=O) [compound 9],0.47,–
73 (cyclo(L[dW]L[dH]K[dK]E[dH]); SMILES CC(C)C[C@@H]1NC(=O)[C@@H](Cc2c[nH]c3ccccc23)NC(=O)[C@H](CC(C)C)NC(=O)[C@@H](Cc2c[nH]cn2)NC(=O)[C@H](CCC(=O)O)NC(=O)[C@@H](CCCCN)NC(=O)[C@H](CCCCN)NC(=O)[C@@H](Cc2c[nH]cn2)NC1=O) [compound 73],0.04,–
66 (cyclo([dW][benzyltyrosine][dK]N[dN]K[dK]K); ring closure inferred) [compound 66],0.10,–
10 (cyclo([dW]L[dW]K[dD]Q[dD]K); SMILES CC(C)C[C@@H]1NC(=O)[C@@H](Cc2c[nH]c3ccccc23)NC(=O)[C@H](CCCCN)NC(=O)[C@@H](CC(=O)O)NC(=O)[C@H](CCC(N)=O)NC(=O)[C@@H](CC(=O)O)NC(=O)[C@H](CCCCN)NC(=O)[C@@H](Cc2c[nH]c3ccccc23)NC1=O) [compound 10],0.12,–
24 (cyclo([dW]L[dW]H[dE]Q[dE]H); SMILES CC(C)C[C@@H]1NC(=O)[C@@H](Cc2c[nH]c3ccccc23)NC(=O)[C@H](Cc2c[nH]cn2)NC(=O)[C@@H](CCC(=O)O)NC(=O)[C@H](CCC(N)=O)NC(=O)[C@@H](CCC(=O)O)NC(=O)[C@H](Cc2c[nH]cn2)NC(=O)[C@@H](Cc2c[nH]c3ccccc23)NC1=O) [compound 24],0.09,–
c[fWwYtRhS] (cyclo([dF]W[dW]Y[dT]R[dH]S); SMILES C[C@H](O)[C@H]1NC(=O)[C@H](Cc2ccc(O)cc2)NC(=O)[C@@H](Cc2c[nH]c3ccccc23)NC(=O)[C@H](Cc2c[nH]c3ccccc23)NC(=O)[C@@H](Cc2ccccc2)NC(=O)[C@H](CO)NC(=O)[C@@H](Cc2c[nH]cn2)NC(=O)[C@H](CCCNC(=N)N)NC1=O) [SEQ ID NO:51],–,excellent activities in promoting generation of pre-beta HDL
15 (cyclo(Y[dL]W[dY]K[dH]A[dE]); SMILES CC(C)C[C@H]1NC(=O)[C@H](Cc2ccc(O)cc2)NC(=O)[C@@H](CCC(=O)O)NC(=O)[C@H](C)NC(=O)[C@@H](Cc2c[nH]cn2)NC(=O)[C@H](CCCCN)NC(=O)[C@@H](Cc2ccc(O)cc2)NC(=O)[C@H](Cc2c[nH]c3ccccc23)NC1=O) [compound 15],0.51,–
58 (cyclo([d3Pal]L[dW]K[dS]K[dS]K); ring closure inferred) [compound 58],0.27,–
75 (cyclo([dW]L[dW][Dap][dE]Q[dE]K); ring closure inferred) [compound 75],0.03,–
61 (cyclo([dY]A[dY]L[dK]H[dK]K); SMILES CC(C)C[C@@H]1NC(=O)[C@@H](Cc2ccc(O)cc2)NC(=O)[C@H](C)NC(=O)[C@@H](Cc2ccc(O)cc2)NC(=O)[C@H](CCCCN)NC(=O)[C@@H](CCCCN)NC(=O)[C@H](Cc2c[nH]cn2)NC(=O)[C@@H](CCCCN)NC1=O) [compound 61],0.19,–
55 (cyclo(L[dW]L[dW]L[dS]E[dK]); SMILES CC(C)C[C@@H]1NC(=O)[C@@H](Cc2c[nH]c3ccccc23)NC(=O)[C@H](CC(C)C)NC(=O)[C@@H](Cc2c[nH]c3ccccc23)NC(=O)[C@H](CC(C)C)NC(=O)[C@@H](CCCCN)NC(=O)[C@H](CCC(=O)O)NC(=O)[C@@H](CO)NC1=O) [compound 55],0.35,–
70 (cyclo(L[dL]W[dL]K[dK]K[dK]); SMILES CC(C)C[C@@H]1NC(=O)[C@@H](CCCCN)NC(=O)[C@H](CCCCN)NC(=O)[C@@H](CCCCN)NC(=O)[C@H](CCCCN)NC(=O)[C@@H](CC(C)C)NC(=O)[C@H](Cc2c[nH]c3ccccc23)NC(=O)[C@@H](CC(C)C)NC1=O) [compound 70],0.06,–
40 (cyclo([dW]L[dW]S[dE]Q[dH]K); SMILES CC(C)C[C@@H]1NC(=O)[C@@H](Cc2c[nH]c3ccccc23)NC(=O)[C@H](CCCCN)NC(=O)[C@@H](Cc2c[nH]cn2)NC(=O)[C@H](CCC(N)=O)NC(=O)[C@@H](CCC(=O)O)NC(=O)[C@H](CO)NC(=O)[C@@H](Cc2c[nH]c3ccccc23)NC1=O) [compound 40],0.40,–
13 (cyclo([dW]L[dW][Orn][dE]Q[dE][Orn]); SMILES CC(C)C[C@@H]1NC(=O)[C@@H](Cc2c[nH]c3ccccc23)NC(=O)[C@H](CCCN)NC(=O)[C@@H](CCC(=O)O)NC(=O)[C@H](CCC(N)=O)NC(=O)[C@@H](CCC(=O)O)NC(=O)[C@H](CCCN)NC(=O)[C@@H](Cc2c[nH]c3ccccc23)NC1=O) [compound 13],0.46,–
30 (cyclo([dW]L[dW]S[dE]Q[dS]K)) [compound 30],0.06,–
76 (cyclo([dL]W[dL]K[dK]K[dH]R); SMILES CC(C)C[C@H]1NC(=O)[C@H](CCCNC(=N)N)NC(=O)[C@@H](Cc2c[nH]cn2)NC(=O)[C@H](CCCCN)NC(=O)[C@@H](CCCCN)NC(=O)[C@H](CCCCN)NC(=O)[C@@H](CC(C)C)NC(=O)[C@H](Cc2c[nH]c3ccccc23)NC1=O) [compound 76],0.03,–
65 (cyclo([dY]G[dW]W[dN]N[dK]N); SMILES NCCCC[C@H]1NC(=O)[C@H](CC(N)=O)NC(=O)[C@@H](CC(N)=O)NC(=O)[C@H](Cc2c[nH]c3ccccc23)NC(=O)[C@@H](Cc2c[nH]c3ccccc23)NC(=O)CNC(=O)[C@@H](Cc2ccc(O)cc2)NC(=O)[C@H](CC(N)=O)NC1=O) [compound 65],0.11,–
68 (cyclo([dW]W[dF]Y[dK]H[dS]S); SMILES NCCCC[C@H]1NC(=O)[C@H](Cc2ccc(O)cc2)NC(=O)[C@@H](Cc2ccccc2)NC(=O)[C@H](Cc2c[nH]c3ccccc23)NC(=O)[C@@H](Cc2c[nH]c3ccccc23)NC(=O)[C@H](CO)NC(=O)[C@@H](CO)NC(=O)[C@H](Cc2c[nH]cn2)NC1=O) [compound 68],0.07,–
16 (cyclo(Y[dW]E[dL]Y[dS]K[dQ]); also: 2nd residue stated as DL-residue) [compound 16],0.09,–
35 (cyclo([dW]L[dW]R[dE]Q[dE][Orn]); SMILES CC(C)C[C@@H]1NC(=O)[C@@H](Cc2c[nH]c3ccccc23)NC(=O)[C@H](CCCN)NC(=O)[C@@H](CCC(=O)O)NC(=O)[C@H](CCC(N)=O)NC(=O)[C@@H](CCC(=O)O)NC(=O)[C@H](CCCNC(=N)N)NC(=O)[C@@H](Cc2c[nH]c3ccccc23)NC1=O) [compound 35],0.02,–
74 (cyclo([dF]F[dY]F[dK]K); SMILES NCCCC[C@@H]1NC(=O)[C@@H](CCCCN)NC(=O)[C@H](Cc2ccccc2)NC(=O)[C@@H](Cc2ccc(O)cc2)NC(=O)[C@H](Cc2ccccc2)NC(=O)[C@@H](Cc2ccccc2)NC1=O) [compound 74],0.04,–
6 (cyclo(L[dW]L[dW]L[dR]K[dE]); SMILES CC(C)C[C@@H]1NC(=O)[C@@H](Cc2c[nH]c3ccccc23)NC(=O)[C@H](CC(C)C)NC(=O)[C@@H](Cc2c[nH]c3ccccc23)NC(=O)[C@H](CC(C)C)NC(=O)[C@@H](CCC(=O)O)NC(=O)[C@H](CCCCN)NC(=O)[C@@H](CCCNC(=N)N)NC1=O) [compound 6],0.36,–
47 (cyclo(WIW[dW][dK][dH][dK][dH]); SMILES CC[C@H](C)[C@@H]1NC(=O)[C@H](Cc2c[nH]c3ccccc23)NC(=O)[C@@H](Cc2c[nH]cn2)NC(=O)[C@@H](CCCCN)NC(=O)[C@@H](Cc2c[nH]cn2)NC(=O)[C@@H](CCCCN)NC(=O)[C@@H](Cc2c[nH]c3ccccc23)NC(=O)[C@H](Cc2c[nH]c3ccccc23)NC1=O) [compound 47],0.79,–
57 (cyclo([dW]L[dW]K[dS]K); SMILES CC(C)C[C@@H]1NC(=O)[C@@H](Cc2c[nH]c3ccccc23)NC(=O)[C@H](CCCCN)NC(=O)[C@@H](CO)NC(=O)[C@H](CCCCN)NC(=O)[C@@H](Cc2c[nH]c3ccccc23)NC1=O) [compound 57],0.30,–
c[WlWwkhkh] (cyclo(WIW[dW][dK][dH][dK][dH])) [SEQ ID NO:47],–,excellent activities in generating plasma pre-beta HDL
20 (cyclo([dW]L[dL]E[dE]K[dK]N); SMILES CC(C)C[C@@H]1NC(=O)[C@@H](Cc2c[nH]c3ccccc23)NC(=O)[C@H](CC(N)=O)NC(=O)[C@@H](CCCCN)NC(=O)[C@H](CCCCN)NC(=O)[C@@H](CCC(=O)O)NC(=O)[C@H](CCC(=O)O)NC(=O)[C@@H](CC(C)C)NC1=O) [compound 20],0.07,–
